According to US5801263A, “Process for preparing tertiary phosphines containing phosphinate or phosphonate groups, and novel tertiary phosphines containing phosphinate groups” (Hoechst Aktiengesellschaft, priority 1996, dated 1998):
Structures can show the parent of a compound that is named as a salt.

Key:
[1] = Solubility in water; type: physicochemical; settings: sodium salt, no temperature printed for this value
Protocol: 100 ml of a 3.7% strength by weight sodium hydrogen carbonate solution (44.1 mmol NaHCO3) are added to 15.0 g (44.1 mmol) of (4-diphenylphosphinophenyl)methylphosphinic acid and the mixture stirred at room temperature until CO2 formation has ended. The aqueous solution is completely evaporated and dried under reduced pressure. 15.6 g (97% of theory) of sodium (4-diphenylphosphinophenyl)methylphosphinate are obtained. Solubility in water: 590 g/l

[2] = in water, at 20° C.; cited from earlier work

`CP(=O)(O)c1ccc(P(c2ccccc2)c2ccccc2)cc1` [Sodium (4-diphenylphosphinophenyl)methylphosphinate] showed a Solubility in water [1] of 590 mg/mL.
For “disodium salt of triphenylphosphinemonophosphonate [Na2 TPPMP]”, the “water solubility (literature comparison)” value [2] is listed as 380 mg/mL.
For `O=S(=O)(O)c1cccc(P(c2ccccc2)c2ccccc2)c1` [Na[TPPMS], sodium salt of triphenylphosphinemonosulfonate], the “water solubility (literature comparison)” value [2] is listed as 80 mg/mL.
